Source: ChEMBL document CHEMBL1159217, “Anti-inflammatory activity of saikosaponins from Heteromorpha trifoliata” (1995)

Assays:
Type in all cases: functional
Mus musculus [1] = experiment: Antiinflammatory activity in Swiss mouse assessed as inhibition of carrageenan-induced ear edema at 100 mg/kg, po administered 1 hr prior to carrageenan challenge measured after 3 hrs
Mus musculus [2] = experiment: Antiinflammatory activity in Swiss mouse assessed as inhibition of 12-O-tetradecanoylphorbol acetate-induced ear edema at 0.5 mg/ear administered tropically
Mus musculus [3] = experiment: Antiinflammatory activity in Swiss mouse assessed as inhibition of serotonin-induced ear edema at 50 mg/kg, sc in presence of actinomycin D administered simultaneously and 1.5 hrs after compound treatment for 3 hrs; design: scale not given: the % may be the effect or the level left; details: route subcutaneous
Mus musculus [4] = experiment: Antiinflammatory activity in Swiss mouse assessed as inhibition of serotonin-induced ear edema at 50 mg/kg, sc in presence of cycloheximide administered simultaneously and 1.5 hrs after compound treatment for 3 hrs; design: scale not given: the % may be the effect or the level left; details: route subcutaneous
Mus musculus [5] = experiment: Antiinflammatory activity in Swiss mouse assessed as inhibition of ethylphenylpropiolate-induced ear edema at 0.5 mg/ear administered tropically 16 hrs prior to ethylphenylpropiolate challenge
Mus musculus [6] = experiment: Antiinflammatory activity in Swiss mouse assessed as inhibition of serotonin-induced ear edema at 50 mg/kg, sc; details: route subcutaneous
Mus musculus [7] = experiment: Antiinflammatory activity in Swiss mouse assessed as inhibition of serotonin-induced ear edema at 50 mg/kg, sc in presence of progesterone administered 1 hr prior to compound treatment; details: route subcutaneous

SMILES | inhibition in vivo at 100 mg/kg (Mus musculus [1]) | inhibition (INH) (Mus musculus [2]) | inhibition (INH) (Mus musculus [5]) | also measured
CO[C@@H]1C=C2[C@@H]3CC(C)(C)CC[C@]3(CO)[C@@H](O)C[C@@]2(C)[C@]2(C)CC[C@H]3[C@](C)(CO)[C@@H](O[C@@H]4O[C@H](C)[C@H](O)[C@H](O[C@@H]5O[C@H](CO)[C@@H](O)[C@H](O)[C@H]5O)[C@H]4O[C@@H]4O[C@H](CO)[C@@H](O)[C@H](O)[C@H]4O)CC[C@]3(C)[C@@H]12 | 18% | 87% |  | 
C[C@H]1O[C@@H](O[C@H]2CC[C@@]3(C)[C@@H](CC[C@]4(C)[C@@H]3C=C[C@]35OC[C@@]6(CCC(C)(C)C[C@H]63)[C@@H](O)C[C@]54C)[C@]2(C)CO)[C@H](O[C@@H]2O[C@H](CO)[C@@H](O)[C@H](O)[C@H]2O)[C@@H](O[C@@H]2O[C@H](CO)[C@@H](O)[C@H](O)[C@H]2O)[C@H]1O [BUDDLEJASAPONIN IV] | 23% | 89% | 59% | Activity (Mus musculus [3]): 14%; Activity (Mus musculus [4]): 14%; inhibition in vivo at 50 mg/kg (Mus musculus [6]): 48%
C[C@@H]1C[C@H]2[C@@H]3CCC4=CC(=O)C=C[C@]4(C)[C@@]3(F)[C@@H](O)C[C@]2(C)[C@@]1(O)C(=O)CO [DEXAMETHASONE] |  |  | 82% | 
COc1ccc2c(c1)c(CC(=O)O)c(C)n2C(=O)c1ccc(Cl)cc1 [INDOMETHACIN] |  | 89% |  | 
CC(=O)[C@H]1CC[C@H]2[C@@H]3CCC4=CC(=O)CC[C@]4(C)[C@H]3CC[C@]12C [PROGESTERONE] |  |  |  | inhibition in vivo at 50 mg/kg (Mus musculus [7]): 44%
